From PubChem BioAssay AID2060351 (Molecular Pharmacology Branch, DTP, NCI, 2025) come the findings set out here.

pIC50: −log10 of the molar value. “And” between values parts separate entries of the source, which are not always exact repeats. Equal entries are not always repeated.

This assay concerns 521955-158-R7-J2-PDC spheroids, viability % test/control. Nature of the assay: Anticancer human tumor 521955-158-R7-J2-PDC patient-derived pancreatic carcinoma cell line growth inhibition [TAK]. The settings on record: spheroids with HUVEC and MSC; for viability, T/C: stronger effect = lower value. The procedure, abridged: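 Spheroids of 60% malignant cells, 25% HUVEC and 15% hMSC were exposed to targeted agents combined with TAK-243 or ipatasertib. Concentrations started at or near clinical Cmax (10 microM if unknown) and descended in half-log steps.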
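Further: spheroids exposed to compound for 7 days before readout.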
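Wherever viability, T/C is given: 100% = DMSO vehicle control wells.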

In the case of `Cn1cnc2c(F)c(Nc3ccc(Br)cc3Cl)c(C(=O)NOCCO)cc21`, the viability, T/C is 66.3% and 85.1% (compound 0.00949 µM); 54.9% and 61.7% (compound 0.03 µM); 38.7% and 44.3% (compound 0.0949 µM); 31.6% and 43.3% (compound 0.3 µM); 25.7% and 30% (compound 0.949 µM); 14.6% and 16.5% (compound 3 µM). The negative logarithm of the IC50 (pIC50) (curve of compound) is 7.38 and 7.06.
